Reference: patent US20010049390A1, “Prevention of pest feed harm on a fibrous product” (priority 2000, published 2001)

How the values were obtained:
[1] = system: middle instar larvae webbing clothes moth (Tineola bisselliella); assay: Test Example 1 / Comparative Example 1: pest feed harm on treated wool muslin, infested after drying; assay type: in vivo; parameters: key: “+++” for a heavy level of the pest feed harm; “++” for a normal level of the pest feed harm; “+” for a minor level of the pest feed harm; “−” for no visual pest feed harm; conditions: 10 larvae, 7 days of infestation at 25±2° C., repeats 1-5
From the text: One-tenth (0.1) milliliter of acetone solutions composed of 0.1% w/v and 0.3% w/v of 1-methyl-2-nitro-3-[(3-tetrahydrofuryl)methyl]guanidine (hereinafter referred to as the present compound), respectively, was eye-dropped with a pipette onto wool muslins.
Each of the resulting wool muslins was then allowed to dry and was placed on the bottom portion of a plastic container.
Ten (10) middle instar larvae webbing clothes moth (Tineola bisselliella) were then placed, respectively, into the plastic container, and a nylon net was set on the top portion of the plastic container to cover the opening thereof. After 7 days of infestation under 25±2° C., the pest feed harm on the wool muslins were examined. The standards to the pest feed harm were “+++” for a heavy level of the pest feed harm, “++” for a normal level of the pest feed harm, “+” for a minor level of the pest feed harm and “−” for no visual pest feed harm. The tests were repeated 5 times.
(§1) Further, as a control, a test utilizing a wool muslin to which no composition was applied was similarly conducted. The control was repeated twice.
One-tenth (0.1) milliliter of acetone solutions composed of 0.1% w/v and 0.3% w/v of (E)-1-ethynyl-2-methyl-pent-2-enyl-(1R)-cis,trans-chrysanthemate (hereinafter referred to as comparative compound 1), respectively, was eye-dropped with a pipette onto wool muslins.
Ten (10) middle instar larvae webbing clothes moth (Tineola bisselliella) were then placed, respectively, into the plastic container, and a nylon net was set on the top portion of the plastic container to cover the opening thereof. After 7 days of infestation under 25±2° C., the pest feed harm on the wool muslins were examined. The standards to the pest feed harm were “+++” for a heavy level of the pest feed harm, “++” for a normal level of the pest feed harm, “+” for a minor level of the pest feed harm and “−” for no visual pest feed harm. The comparative experiments were repeated 5 times.

[2] = system: middle instar larvae webbing clothes moth (Tineola bisselliella); assay: Test Example 2 / Comparative Example 2: pest feed harm on treated wool muslin preserved for 2 weeks before infestation; assay type: in vivo; parameters: key: “+++” for a heavy level of the pest feed harm; “++” for a normal level of the pest feed harm; “+” for a minor level of the pest feed harm; “−” for no visual feed harm; conditions: preserved at 25±2° C. for 2 weeks before test, 10 larvae, 7 days of infestation, repeats 1-5
Description: One-tenth (0.1) milliliter of acetone solutions composed of 0.1% w/v and 0.3% w/v of the present compound, respectively, was eye-dropped with a pipette onto wool muslins.
Each of the resulting wool muslins was then preserved at 25±2° C. for 2 weeks. After the 2 weeks, each of the wool muslins was placed on the bottom portion of a plastic container.
Ten (10) middle instar larvae webbing clothes moth (Tineola bisselliella) were then placed, respectively, into the plastic container and a nylon net was set on the top portion of the plastic container to cover the opening thereof. After 7 days of infestation under 25±2° C., the pest feed harm on the wool muslins were examined. The standards to the pest feed harm were “+++” for a heavy level of the pest feed harm, “++” for a normal level of the pest feed harm, “+” for a minor level of the pest feed harm and “−” for no visual feed harm. The tests were repeated 5 times.
as §1
One-tenth (0.1) milliliter of acetone solutions composed of 0.1% w/v and 0.3% w/v of Comparative compound 1, respectively, was eye-dropped with a pipette onto wool muslins.
Ten (10) middle instar larvae webbing clothes moth (Tineola bisselliella) were then placed, respectively, into the plastic container and a nylon net was set on the top portion of the plastic container to cover the opening thereof. After 7 days of infestation under 25±2° C., the pest feed harm on the wool muslins were examined. The standards to the pest feed harm were “+++” for a heavy level of the pest feed harm, “++” for a normal level of the pest feed harm, “+” for a minor level of the pest feed harm and “−” for no visual pest feed harm. The comparative experiments were repeated 5 times.

[3] = application amount 25 mg/m^2 on wool muslin
[4] = application amount 75 mg/m^2 on wool muslin

## C#CC(OC(=O)C1C(C=C(C)C)C1(C)C)/C(C)=C/CC (mixture of isomers) [Comparative compound 1, (E)-1-ethynyl-2-methyl-pent-2-enyl-(1R)-cis,trans-chrysanthemate]
[1]; [3]
  Pest feed harm: + + and +
[1]; [4]
  Pest feed harm: + and + +
[2]; [3]
  Pest feed harm: + + +
[2]; [4]
  Pest feed harm: + + +

## CNC(=N[N+](=O)[O-])NCC1CCOC1 (centres unmarked) [Present compound, 1-methyl-2-nitro-3-[(3-tetrahydrofuryl)methyl]guanidine]
[1]; [3]
  Pest feed harm: −
[1]; [4]
  Pest feed harm: −
[2]; [3]
  Pest feed harm: −
[2]; [4]
  Pest feed harm: −
